Here are results for 17 molecules from patent US11590116B2 (THERAVANCE BIOPHARMA R&D IP, LLC, priority 2019, dated 2023).

Assay [1] concerns the target T1, recombinant human ALK5 (TGF-βR1) protein (Homo sapiens, UniProt P36897).
T1 construct: purchased Life Technologies PR9075A
T1 sequence (P36897 34-503): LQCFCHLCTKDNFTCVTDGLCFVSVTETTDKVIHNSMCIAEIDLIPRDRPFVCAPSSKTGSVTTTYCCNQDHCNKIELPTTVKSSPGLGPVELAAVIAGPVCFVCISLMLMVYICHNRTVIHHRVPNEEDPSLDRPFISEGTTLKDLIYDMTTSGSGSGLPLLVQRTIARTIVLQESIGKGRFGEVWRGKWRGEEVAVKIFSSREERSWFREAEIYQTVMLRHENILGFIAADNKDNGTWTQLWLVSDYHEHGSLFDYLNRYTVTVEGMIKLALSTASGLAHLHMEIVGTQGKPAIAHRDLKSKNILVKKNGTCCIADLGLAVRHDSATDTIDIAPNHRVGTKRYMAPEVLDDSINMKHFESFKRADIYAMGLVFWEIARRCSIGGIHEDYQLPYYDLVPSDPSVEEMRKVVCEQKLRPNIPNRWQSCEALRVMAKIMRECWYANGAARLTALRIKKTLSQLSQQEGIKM
In words: Biochemical ALK5 (TGF-βR1) assay to measure pKi (LANCE Ultra ULight kinase assay). Particulars: apparent pKi from pIC50 by Cheng-Prusoff, read-out: ALK5 pKi (converted). The essentials: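 After a 60 min room-temperature preincubation of ALK5 with compound, phosphorylation proceeds 60 min at 37 °C on ATP addition (125 μM as 5× stock). Detection: Eu-labelled phospho-Thr1342 Topo IIα antibody in EDTA buffer, pH 7.0; emission 665 nm.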
(In general: In TR-FRET formats the signal depends on donor and acceptor labels being close together.)

The subject of assay [2] is TGF-β-stimulated SMAD3 phosphorylation in BEAS-2B cells. In words: Cellular ALK5 potency assay, inhibition of TGF-β stimulated pSMAD3 formation in BEAS-2B cells. The settings on record: Homo sapiens; inhibition of TGF-β stimulated pSMAD3 formation, BEAS-2B cells; read-out: BEAS2B pIC50 (converted). Format: cell-based. The essentials: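 BEAS-2B human lung epithelial cells pre-treated 1 h at 37° C with compound in HBSS/25 mM HEPES/1% BSA, then stimulated 30 min with 10 ng/mL TGF-β (final). Lysates assayed for pSMAD3 by AlphaLISA; pIC50 from dose-dependent change versus stimulated untreated cells.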

A value given as a limit tells only on which side of the number the result lay.

As to `Cc1cccc(-c2nnn(Cc3ccccc3)c2-c2ccc3ncc(NCCN4CCN(C(C)C)CC4)cc3c2)n1` [Compound 584, 6-[3-benzyl-5-(6-methyl-2-pyridyl)triazol-4-yl]-N-[2-(4-isopropylpiperazin-1-yl)ethyl]quinolin-3-amine], the Ki in assay [1] is 0.0398 to 0.316 nM. Besides, in assay [2], the IC50 is 200 to 1260 nM.

`Cc1cccc(-c2[nH]ncc2-c2ccc3nccc(C(=O)OCCN4C[C@@H](C)N[C@@H](C)C4)c3c2)n1` [Compound 1176, 2-[(3R,5S)-3,5-dimethylpiperazin-1-yl]ethyl 6-[5-(6-methyl-2-pyridyl)-1H-pyrazol-4-yl]quinoline-4-carboxylate]: in assay [1], the Ki is 0.0398 to 0.316 nM. Further, the IC50 in assay [2] is 25.1 to 158 nM.

On to `Cc1cccc(-c2[nH]cnc2-c2ccc3ncc(NC(=O)C4CCNCC4)cc3c2)n1` [Compound 649, N-[6-[5-(6-methyl-2-pyridyl)-1H-imidazol-4-yl]-3-quinolyl]piperidine-4-carboxamide], for which the Ki in assay [1] is 0.0398 to 0.316 nM. The IC50 in assay [2] is 200 to 1260 nM.

With `Cc1cccc(-c2n[nH]cc2-c2ccc3ncc(C4=CCC(N)CC4)cc3n2)n1` (stereo not shown) [Compound 21, 4-[6-[3-(6-methyl-2-pyridyl)-1H-pyrazol-4-yl]-1,5-naphthyridin-3-yl]cyclohex-3-en-1-amine], the Ki in assay [1] was < 0.0316 nM. Moreover, the IC50 in assay [2] was 25.1 to 158 nM.

As for `Cc1cccc(-c2[nH]cnc2-c2ccc3ncc(C(=O)OC[C@@H]4CCC[C@H](N)C4)cc3c2)n1` (racemic) [Compound 767, [rac-(1R,3S)-3-aminocyclohexyl]methyl 6-[5-(6-methyl-2-pyridyl)-1H-imidazol-4-yl]quinoline-3-carboxylate], the Ki in assay [1] is 0.0398 to 0.316 nM. Besides, the IC50 in assay [2] is 25.1 to 158 nM.

On to `COc1cnc2ccc(-c3c[nH]nc3-c3cccc(C)n3)nc2c1` [Compound 321, 7-methoxy-2-[3-(6-methyl-2-pyridyl)-1H-pyrazol-4-yl]-1,5-naphthyridine], for which the Ki in assay [1] was < 0.0316 nM. Moreover, the IC50 in assay [2] is < 20 nM.

On to `Cc1cccc(-c2[nH]ncc2-c2ccc3ncc(C(=O)OCCC4CNC4)cc3c2)n1` [Compound 1204, 2-(azetidin-3-yl)ethyl 6-[5-(6-methyl-2-pyridyl)-1H-pyrazol-4-yl]quinoline-3-carboxylate], for which the Ki in assay [1] is < 0.0316 nM. The IC50 in assay [2] was 25.1 to 158 nM.

Turning to `Cc1cccc(-c2[nH]cnc2-c2ccc3ncc(N4CC5(CNC5)C4)cc3c2)n1` [Compound 131, 3-(2,6-diazaspiro[3.3]heptan-2-yl)-6-[5-(6-methyl-2-pyridyl)-1H-imidazol-4-yl]quinoline], the Ki in assay [1] was < 0.0316 nM. In addition, the IC50 in assay [2] was 25.1 to 158 nM.

As to `Cc1cccc(-c2n[nH]cc2-c2ccc3ncc(CO)cc3n2)n1` [Compound 126, [6-[3-(6-methyl-2-pyridyl)-1H-pyrazol-4-yl]-1,5-naphthyridin-3-yl]methanol], the Ki in assay [1] is 0.0398 to 0.316 nM. The IC50 in assay [2] is 25.1 to 158 nM.

Turning to `Cc1cccc(-c2n[nH]cc2-c2ccc3ncc(CCCN4CCN(C(C)C)CC4)cc3n2)n1` [Compound 615, 7-[3-(4-isopropylpiperazin-1-yl)propyl]-2-[3-(6-methyl-2-pyridyl)-1H-pyrazol-4-yl]-1,5-naphthyridine], the Ki in assay [1] was 0.0398 to 0.316 nM. Further, the IC50 in assay [2] is 25.1 to 158 nM.

For the molecule `CCOC(=O)CN1CCN(Cc2ccnc3ccc(-c4c[nH]nc4-c4cccc(C)n4)nc23)CC1` [Compound 821, ethyl 2-[4-[[6-[3-(6-methyl-2-pyridyl)-1H-pyrazol-4-yl]-1,5-naphthyridin-4-yl]methyl]piperazin-1-yl]acetate], in assay [1], the Ki is 0.398 to 3.16 nM. Also, the IC50 in assay [2] was 25.1 to 158 nM.

As to `COC(=O)c1ccnc2ccc(-c3cn[nH]c3-c3cccc(C)n3)cc12` [Compound 1061, methyl 6-[5-(6-methyl-2-pyridyl)-1H-pyrazol-4-yl]quinoline-4-carboxylate], the Ki in assay [1] is 0.0398 to 0.316 nM. Also, in assay [2], the IC50 was 25.1 to 158 nM.

With `Cc1cccc(-c2n[nH]cc2-c2ccc3ncc(N4CCC(O)C4)cc3n2)n1` (racemic) [Compound 312, rac-(3R)-1-[6-[3-(6-methyl-2-pyridyl)-1H-pyrazol-4-yl]-1,5-naphthyridin-3-yl]pyrrolidin-3-ol], the Ki in assay [1] is < 0.0316 nM. Also, the IC50 in assay [2] was < 20 nM.

Take `Cc1nc(-c2n[nH]cc2-c2ccc3ncc(-c4cnn(C5CCCNC5)c4)cc3c2)ccc1F` (stereo not shown) [Compound 458, 6-[3-(5-fluoro-6-methyl-2-pyridyl)-1H-pyrazol-4-yl]-3-[1-(3-piperidyl)pyrazol-4-yl]quinoline]: the Ki in assay [1] is < 0.0316 nM. The IC50 in assay [2] was < 20 nM.

Turning to `Cc1cccc(-c2n[nH]cc2-c2ccc3ncc(-c4cn5c(n4)CN(C4CCNC4)CC5)cc3n2)n1` (stereo not shown) [Compound 440, 2-[3-(6-methyl-2-pyridyl)-1H-pyrazol-4-yl]-7-(7-pyrrolidin-3-yl-6,8-dihydro-5H-imidazo[1,2-a]pyrazin-2-yl)-1,5-naphthyridine], the Ki in assay [1] was 0.0398 to 0.316 nM. Moreover, the IC50 in assay [2] was 200 to 1260 nM.

Turning to `Cc1nc(-c2n[nH]cc2-c2ccc3ncc(N4CCC(N5CCN(C)CC5)CC4)cc3c2)ccc1F` [Compound 93, 6-[3-(5-fluoro-6-methyl-2-pyridyl)-1H-pyrazol-4-yl]-3-[4-(4-methylpiperazin-1-yl)-1-piperidyl]quinoline], in assay [1], the Ki was < 0.0316 nM. Further, the IC50 in assay [2] is 25.1 to 158 nM.

For the molecule `Cc1cccc(-c2[nH]cnc2-c2ccc3ncc(NCCN4CCN(C(C)C)CC4)cc3c2)n1` [Compound 467, N-[2-(4-isopropylpiperazin-1-yl)ethyl]-6-[5-(6-methyl-2-pyridyl)-1H-imidazol-4-yl]quinolin-3-amine], the Ki in assay [1] was 0.0398 to 0.316 nM. For the same molecule, the IC50 in assay [2] is 25.1 to 158 nM.
